Entries after “also recorded” stand apart in the source; their conditions may differ. Like-named read-outs stand apart in the source and are kept apart here.

Data set [1] deals with tactile allodynia (paw withdrawal thresholds). Briefly: Tactile allodynia (50% paw withdrawal threshold, von Frey) after intravenous drug, L5/L6 spinal nerve ligated rats. The class given is in vivo, Male Harlan Sprague-Dawley rats. An excerpt: For intravascular access, external jugular catheters were fashioned from PE-50 tubing and inserted into an external jugular vein under halothane/oxygen anesthesia. Arterial catheters were also fashioned from PE-50 with a small bouton 1 cm from the intravascular end for suture securing; they were inserted into a carotid artery, taking care to spare the surrounding nerves. All catheters were flushed with heparinized saline (10 U/ml) and tunneled subcutaneously to emerge at the posterior base of the neck, and capped when not in use. […] Rats were placed in a plastic cage with an open wire mesh bottom and allowed to accommodate for approximately fifteen minutes. A series of 8 von Frey filaments with logarithmically incremental stiffness (0.41, 0.70, 1.20, 2.00, 3.63, 5.50, 8.50, and 15.10 g) (Stoelting, Wood Dale, Ill.) was used to determine the 50% threshold for paw withdrawal to light mechanical stimuli (PWT). In brief, von Frey hairs were sequentially applied using an up-and-down paradigm to the left mid-plantar hindpaw with sufficient force to cause slight filament buckling. Positive responses were noted if the paw was sharply withdrawn. […] Otherwise, PWT were calculated by noting the stimulus level at which the first change in behavior occurred, collecting four additional responses to the continued up-and-down oscillation of stimulus presentation around the response threshold, and interpolating the 50% response threshold. […] The following equation was used to compute %MPE: [formula] Plasma drug levels and PWT were correlated using linear regression. Serially measured PWT and %MPE were compared using repeated measures ANOVA.

Data set [2] shares this test system. Briefly: Tactile allodynia (50% paw withdrawal threshold, von Frey) after intrathecal drug, L5/L6 spinal nerve ligated rats. It counts as in vivo, Male Harlan Sprague-Dawley rats. To be noted: IT; lidocaine 500 μg, MEGX 500 μg, 3-OH L 58 μg. The procedure:
(§1) Male Harlan Sprague-Dawley rats were used (100-200 g). Rats were housed 2-3 to a cage with corn cob bedding and Purina rat chow and water ad libitum, in a standard facility with a 12 h/ 12 h day/night cycle. After surgical procedures involving chronic indwelling catheter insertion, animals were housed singly to prevent catheter damage.
Rats were allowed to recover 5-7 days before further testing or surgeries.
The catheters were 9 cm in intrathecal length and terminated near the lumbar enlargement. The rostral 3 cm of catheter was tunneled under the skin to externalize between the ears. Rats with neurologic deficits were discarded.
(§2) Monoethylglycinexylidide (MEGX) was dissolved in physiologic saline; 3-hydroxylidocaine (3-OH L) was dissolved in DMSO for intravenous administration.
Intravenous drugs were delivered to awake, unrestrained rats by slow infusion using a syringe pump (Harvard apparatus 22). Intrathecal drugs were delivered to awake, briefly restrained rats in a volume of 10 μl, followed by 10 μl of vehicle flush, using a calibrated tubing extension with a 30-gauge adapter fitting the implanted intrathecal catheter, attached to a geared Hamilton 100 μl glass syringe. IT drug delivery was monitored by observing the advancement of a small air bubble down the tubing.
Rats were placed in a plastic cage with an open wire mesh bottom and allowed to accommodate for approximately fifteen minutes. […] In brief, von Frey hairs were sequentially applied using an up-and-down paradigm to the left mid-plantar hindpaw with sufficient force to cause slight filament buckling. Positive responses were noted if the paw was sharply withdrawn. […] Otherwise, PWT were calculated by noting the stimulus level at which the first change in behavior occurred, collecting four additional responses to the continued up-and-down oscillation of stimulus presentation around the response threshold, and interpolating the 50% response threshold. […] The following equation was used to compute %MPE: [formula]
Plasma drug levels and PWT were correlated using linear regression. Serially measured PWT and %MPE were compared using repeated measures ANOVA.

The subject of data set [3] is P45ONF(human) (P-450 PB-1(rat)(IIIA4) enzyme). The following applies: lidocaine metabolite formation; cited from earlier work.
Data set [4] deals with tactile allodynia (paw withdrawal thresholds). Briefly: Mechanical allodynia after single i.p. dose in SD rats (left L5/L6 spinal nerve ligation). The class given is in vivo.
Data set [5] relates to acutely injured peripheral terminals. To be noted: in vitro, protein-free system; cited from earlier work.
Another data set deals with neuromata. The following applies: intravenous, whole animals; cited from earlier work.
For the next data set, the system named is motor function. In words: Motor and behavioral effects after intrathecal administration. The procedure: as §1
To induce neuropathy, rats were anesthetized with halothane/oxygen, and the left L5/L6 spinal nerves were exposed via a dorsal midline incision and ligated tightly with 6-0 silk suture according to the reported method [Kim S H et al., Pain 50:355-363 (1992)]. Rats were allowed to recover 5-7 days before further testing or surgeries.
Intrathecal PE-10 catheters were implanted under halothane/oxygen anesthesia [Yaksh T L et al., Physiol Behav 17:1031-1036 (1976)]. The catheters were 9 cm in intrathecal length and terminated near the lumbar enlargement. The rostral 3 cm of catheter was tunneled under the skin to externalize between the ears. Rats with neurologic deficits were discarded.
as §2
Intravenous drugs were delivered to awake, unrestrained rats by slow infusion using a syringe pump (Harvard apparatus 22). […] IT drug delivery was monitored by observing the advancement of a small air bubble down the tubing.

For data set [6], the system named is painful diabetic neuropathy. The following applies: cited from earlier work.
Data set [7] has as its system wide dynamic range neurons. The following applies: IV, 3-4 mg/kg, rat; cited from earlier work.
For data set [8], the system named is tactile allodynia (paw withdrawal thresholds). The following applies: after termination of motor block [Chaplan et al. (1993)]; cited from earlier work.
Data set [9] has the same test system. In words: Mechanical allodynia after single i.p. dose in DA rats (left L5/L6 spinal nerve ligation). The following applies: for effect on tactile allodynia, DA rats: single i.p. dose, lidocaine 60 mg/kg, 3-OHL 15 mg/kg (P<0.002). It counts as in vivo.
Data set [10] deals with peripheral nerve injury pain. To be noted: lidocaine intravenous; mexiletine oral; cited from earlier work.
The test system of data set [11] is polysynaptic C-fiber evoked flexor responses. To be noted: IV, 1-5 mg/kg, cited from earlier work.
Data set [12] has as its system tactile allodynia (paw withdrawal thresholds). The following applies: IV systemic lidocaine, cited from earlier work.
The subject of data set [13] is sural nerve evoked after discharges. The following applies: IV, 1 mg/kg; cited from earlier work.
The test system of data set [14] is centrally organized nociceptive flexion response. The following applies: painful diabetic neuropathy; cited from earlier work.
The test system of the next data set is dorsal root ganglion. The following applies: intravenous, whole animals; cited from earlier work.
The conditions of data set [15]: DA rats; some species of rats; cited from earlier work.

For the compound `CCNCC(=O)Nc1c(C)cccc1C` [MEGX, Monoethylglycinexylidide], the “allodynia suppression by IV MEGX” value in [1] (20 mg/kg, infused over 60 minutes) is given as “completely devoid of anti-allodynia activity by the intravenous route; also recorded: no effect whatsoever”. This compound had a PWT post infusion in [1] (MEGX 20 mg/kg IV infused over 60 minutes, baseline 1.7±0.6 g) of 1.96 ± 0.4 g. Also, in [2], the “effect on allodynia thresholds after IT delivery” value is “not MEGX, suppressed allodynia; also recorded: no effect on PWT at this limiting dose”. Besides, the “enzyme producing the metabolite MEGX” value in data set [3] was “produced by the P45ONF(human) (P-450 PB-1(rat)(IIIA4) enzyme”.
For the compound `CCN(CC)CC(=O)Nc1c(C)cccc1C` [lidocaine], the “duration of tactile allodynia alleviation, SD rats” value in data set [4] (lidocaine 60 mg/kg i.p. single dose, N=6, strain difference P<0.002) is “more than 16 days”. Moreover, the “effect on tactile allodynia, SD rats” value in data set [4] (single i.p. dose, lidocaine 60 mg/kg, 3-OHL 15 mg/kg (P<0.05)) is given as “sustained effect on tactile allodynia in SD rats; also recorded: persistent effects of lidocaine against allodynia”. Further, the “ED50, suppression of spontaneous activity” value in [5] is 5.7 µg/mL. Also, the “ED50 for discharge suppression in neuromata” value in the data set on neuromata is 6 mg/kg. In addition, the “duration of motor dysfunction after IT delivery” value in the data set with motor function (500 μg) is “approximately 10 minutes”. Besides, the “motor effects after IT delivery” value in the data set with motor function (lidocaine 500 μg, MEGX 500 μg, 3-OH L 58 μg) is recorded as “acute onset of hindquarter flaccidity”. The thermal thresholds result in [6] (intravenous lidocaine, painful diabetic neuropathy) was “without alteration in thermal thresholds”. Besides, the “clinical effect in painful diabetic neuropathy” value in data set [6] (lidocaine intravenous, mexiletine oral) was “reduced pain scores for several days”. Further, the “effect on wide dynamic range neuron activity” value in data set [7] was “selectively suppresses the increased wide dynamic range neuronal activity seen ipsilateral to chronic peripheral nerve injury; also recorded: suppresses noxious-evoked activity in wide dynamic range neurons in the rat”. Also, the “anti-allodynic effect, IT / regional route (earlier report)” value in data set [8] was “no anti-allodynic effect after termination of motor block”. In addition, the “time of transient effect, DA rats” value in data set [9] (lidocaine 60 mg/kg i.p.) was determined as 30 min. Also, the “effect on tactile allodynia, DA rats” value was “not effective in this regard in DA rats; also recorded: no sustained effect of lidocaine in DA rats” in [9] and “no sustained effect whatsoever” in data set [9] (listed as Lidocaine). The “clinical effect in peripheral nerve injury pain” value in [10] is reported as “decreases in spontaneous pain, albeit of short duration”. In addition, the “conduction block at the peripheral terminal” value in data set [11] is “without evidence of conduction block at the peripheral terminal”. Also, the “effect on polysynaptic C-fiber evoked flexor responses” value in data set [11] (mustard oil and noxious heat) is “suppresses polysynaptic C-fiber evoked flexor responses to mustard oil and noxious heat”. The “effect on allodynia, intravenous route (earlier reports)” value in [12] (listed as Lidocaine) is listed as “effective against allodynia by the intravenous”; in data set [12], “long lasting effect by the IV route”. Further, the “suppression of sural nerve evoked after discharges” value in data set [13] was “suppression of polysynaptic (spinal cord) sural nerve evoked after discharges”. In addition, in data set [2], the “effect on allodynia thresholds after IT delivery” value is listed as “no effect on allodynia was seen”. In data set [14], the nociceptive flexion response result is reported as “suppression of the centrally organized nociceptive flexion response”. For the same compound, the “ED50 for discharge suppression, dorsal root ganglion” value in the data set with dorsal root ganglion is on record as 1 mg/kg. Further, the “3-hydroxylation / production of 3-OH L in rats” value in data set [15] is “lack of 3-hydroxylation in this strain”.

The record behind these values is patent publication US5849737A, “Compositions and methods for treating pain” (priority 1995, dated 1998).
